Data reported in BindingDB's records for patent US20240343694 (Korea Reserarch Institute of Chemical Technology, 2024).

Tests used:
[1] = molecular target: T1, Epidermal growth factor receptor [1-763,'FHEA',764-1210] (UniProt P00533); test: Inhibitory Activity of Compounds Against EGFR Mutant Enzyme
T1 construct: 1-763,'FHEA',764-1210
Method: (§1) The activity of the compounds of the present invention against EGFR mutant enzymes was measured using the HTRF system purchased from Cisbio as follows. For an EGFR mutant enzyme, the EGFR del19 enzyme was a recombinant protein purchased from Carna Biosciences, and the EGFR A763_Y764insFHEA enzyme was a recombinant protein purchased from SignalChem, respectively.The composition of the assay buffer used for activity measurement was 50 mM tris-HCl pH 7.5, 100 mM NaCl, 7.5 mM MgCl2, 3 mM KCl, 0.01% tween 20, 0.1% BSA, and 1 mM DTT. An enzymatic reaction was performed using a peptide substrate labeled with ATP at a concentration of […] and biotin at a concentration of […]. The analysis of the inhibitory effect of the compounds on EGFR activity was performed according to the following method.Component 1:4 μL of EGFR mutant enzymeComponent 2:2 μL of compound solutionComponent 3:4 μL of ATP and a biotin labeled peptideThe enzyme reaction begins by first mixing component 1 and component 2 and then adding component 3 thereto. After the reaction at 37° C. for 2 hours, […] of a measurement solution consisting of streptavidin-XL665 and a europium-labeled anti-phosphotyrosine antibody purchased from Cisbio was added to the enzyme reaction solution and reacted at room temperature for 1 hour. Finally, the ratio of fluorescence values at 615 nm and 665 nm was measured using Perkin-Elmer's Envision instrument to calculate enzyme activity and confirm the inhibitory ability of the compounds.

[2] = molecular target: T2, Epidermal growth factor receptor [DEL746-750] (Homo sapiens, UniProt P00533); test: as above
T2 construct: gene EGFR
T2 sequence (P00533 with tags, fused parts or gaps DEL746-750 limits assumed, stated change not applied): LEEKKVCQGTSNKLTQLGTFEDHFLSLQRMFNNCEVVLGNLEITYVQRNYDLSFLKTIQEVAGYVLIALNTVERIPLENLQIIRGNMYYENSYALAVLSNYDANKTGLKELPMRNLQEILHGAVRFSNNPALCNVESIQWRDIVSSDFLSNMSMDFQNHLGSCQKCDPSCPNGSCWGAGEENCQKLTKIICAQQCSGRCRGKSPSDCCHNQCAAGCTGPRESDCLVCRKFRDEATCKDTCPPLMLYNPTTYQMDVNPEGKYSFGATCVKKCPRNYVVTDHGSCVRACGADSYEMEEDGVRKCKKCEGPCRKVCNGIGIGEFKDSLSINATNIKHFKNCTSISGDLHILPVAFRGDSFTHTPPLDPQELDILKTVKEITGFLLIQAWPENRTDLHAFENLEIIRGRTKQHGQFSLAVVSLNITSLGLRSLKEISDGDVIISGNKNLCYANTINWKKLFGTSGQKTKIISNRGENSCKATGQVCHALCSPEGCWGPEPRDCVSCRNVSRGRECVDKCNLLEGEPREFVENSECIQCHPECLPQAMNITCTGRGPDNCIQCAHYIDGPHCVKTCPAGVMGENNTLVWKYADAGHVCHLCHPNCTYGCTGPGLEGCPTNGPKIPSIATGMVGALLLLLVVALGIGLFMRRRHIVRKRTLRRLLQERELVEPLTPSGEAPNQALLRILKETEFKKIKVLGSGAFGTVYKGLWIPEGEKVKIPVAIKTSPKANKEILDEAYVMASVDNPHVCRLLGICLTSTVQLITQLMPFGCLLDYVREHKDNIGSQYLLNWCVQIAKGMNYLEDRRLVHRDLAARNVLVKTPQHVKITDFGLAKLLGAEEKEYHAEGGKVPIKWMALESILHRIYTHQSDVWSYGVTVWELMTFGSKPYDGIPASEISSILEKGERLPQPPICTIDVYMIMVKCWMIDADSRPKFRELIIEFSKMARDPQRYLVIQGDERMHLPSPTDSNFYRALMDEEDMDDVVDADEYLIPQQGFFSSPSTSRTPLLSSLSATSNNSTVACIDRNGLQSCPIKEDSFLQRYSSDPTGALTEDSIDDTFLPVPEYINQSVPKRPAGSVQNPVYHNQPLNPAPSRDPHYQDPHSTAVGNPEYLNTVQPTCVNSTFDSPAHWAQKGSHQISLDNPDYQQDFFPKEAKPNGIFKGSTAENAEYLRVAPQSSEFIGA
Method: as §1

[3] = molecular target: T3, Receptor tyrosine-protein kinase erbB-2 [1-775,'YVMA',776-1255] (Homo sapiens, UniProt P04626); test: Inhibitory Activity of Compounds Against HER2 A775_G776insYVMA mutant enzyme
T3 construct: 1-775,'YVMA',776-1255
T3 sequence (P04626 with tags, fused parts or gaps INS775YVMA limits assumed): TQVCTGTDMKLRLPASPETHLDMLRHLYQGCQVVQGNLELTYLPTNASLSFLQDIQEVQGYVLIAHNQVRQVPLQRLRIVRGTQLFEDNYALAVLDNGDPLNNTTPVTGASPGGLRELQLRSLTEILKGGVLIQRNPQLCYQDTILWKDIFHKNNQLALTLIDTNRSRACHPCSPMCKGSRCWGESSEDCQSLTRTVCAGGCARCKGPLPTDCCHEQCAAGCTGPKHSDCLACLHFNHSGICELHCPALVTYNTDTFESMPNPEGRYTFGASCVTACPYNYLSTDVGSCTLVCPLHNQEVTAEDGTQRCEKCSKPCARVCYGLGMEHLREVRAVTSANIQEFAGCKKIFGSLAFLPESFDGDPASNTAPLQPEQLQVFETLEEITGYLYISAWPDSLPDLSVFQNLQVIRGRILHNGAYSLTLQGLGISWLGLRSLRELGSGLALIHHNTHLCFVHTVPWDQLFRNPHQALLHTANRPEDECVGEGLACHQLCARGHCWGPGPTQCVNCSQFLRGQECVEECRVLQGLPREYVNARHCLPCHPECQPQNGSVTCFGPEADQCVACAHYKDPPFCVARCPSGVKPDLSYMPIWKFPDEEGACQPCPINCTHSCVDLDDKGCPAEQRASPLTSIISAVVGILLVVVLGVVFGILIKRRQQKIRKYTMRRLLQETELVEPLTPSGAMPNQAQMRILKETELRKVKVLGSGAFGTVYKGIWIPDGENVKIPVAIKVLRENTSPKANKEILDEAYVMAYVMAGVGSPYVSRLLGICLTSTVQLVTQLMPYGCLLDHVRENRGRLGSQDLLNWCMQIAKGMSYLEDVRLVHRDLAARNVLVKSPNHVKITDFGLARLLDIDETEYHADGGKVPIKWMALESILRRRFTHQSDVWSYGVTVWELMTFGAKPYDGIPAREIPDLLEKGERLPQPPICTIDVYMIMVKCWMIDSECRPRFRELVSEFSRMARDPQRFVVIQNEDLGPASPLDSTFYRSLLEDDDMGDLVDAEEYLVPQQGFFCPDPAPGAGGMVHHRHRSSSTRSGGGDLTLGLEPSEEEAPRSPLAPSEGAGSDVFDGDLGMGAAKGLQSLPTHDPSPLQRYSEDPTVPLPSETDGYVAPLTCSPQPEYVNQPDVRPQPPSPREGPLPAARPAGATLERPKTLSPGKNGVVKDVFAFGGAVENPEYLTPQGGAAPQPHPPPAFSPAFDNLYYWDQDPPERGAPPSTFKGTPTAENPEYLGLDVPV
Method: The activity of the compounds of the present invention against HER mutant enzymes was measured using the HTRF system purchased by Cisbio as follows. As a HER2 mutant enzyme, the HER2 A775_G776insYVMA mutant enzyme was used by purchasing a recombinant protein provided by Carna Biosciences.The composition of the assay buffer used for activity measurement was 50 mM tris-HCl pH 7.5, 100 mM NaCl, 7.5 mM MgCl2, 3 mM KCl, 0.01% tween 20, 0.1% BSA, and 1 mM DTT. In addition thereto, the enzymatic reaction was performed using a peptide substrate labeled with ATP at a concentration of […] and biotin at a concentration of […]. The analysis of the activity inhibitory effect of the compounds on HER2 A775_G776insYVMA mutation was performed according to the following method.Component 1:4 μL of HER2 A775_G776insYVMA mutant enzymeComponent 2:2 μL of compound solutionComponent 3:4 μL of ATP and a biotin labeled peptideThe enzyme reaction begins by first mixing component 1 and component 2 and then adding component 3 thereto. After the reaction at 37° C. for 2 hours, […] of a measurement solution consisting of streptavidin-XL665 and a europium-labeled anti-phosphotyrosine antibody purchased from Cisbio was added to the enzyme reaction solution and reacted at room temperature for 1 hour. Finally, the ratio of fluorescence values at 615 nm and 665 nm was measured using Perkin-Elmer's Envision equipment to calculate enzyme activity and confirm the inhibitory ability of the compounds.

[4] = molecular target: T4, Epidermal growth factor receptor [DEL746-750] (Homo sapiens, UniProt P00533, DEL746-750); test: Inhibitory Activity of Compounds Against EGFR Mutant Enzyme
T4 construct: gene EGFR
T4 sequence (P00533 with tags, fused parts or gaps DEL746-750 limits assumed): as the sequence (P00533 with tags, fused parts or gaps DEL746-750 limits assumed, stated change not applied) above
Method: as §1

T1 sequence (P00533 with tags, fused parts or gaps INS763FHEA limits assumed): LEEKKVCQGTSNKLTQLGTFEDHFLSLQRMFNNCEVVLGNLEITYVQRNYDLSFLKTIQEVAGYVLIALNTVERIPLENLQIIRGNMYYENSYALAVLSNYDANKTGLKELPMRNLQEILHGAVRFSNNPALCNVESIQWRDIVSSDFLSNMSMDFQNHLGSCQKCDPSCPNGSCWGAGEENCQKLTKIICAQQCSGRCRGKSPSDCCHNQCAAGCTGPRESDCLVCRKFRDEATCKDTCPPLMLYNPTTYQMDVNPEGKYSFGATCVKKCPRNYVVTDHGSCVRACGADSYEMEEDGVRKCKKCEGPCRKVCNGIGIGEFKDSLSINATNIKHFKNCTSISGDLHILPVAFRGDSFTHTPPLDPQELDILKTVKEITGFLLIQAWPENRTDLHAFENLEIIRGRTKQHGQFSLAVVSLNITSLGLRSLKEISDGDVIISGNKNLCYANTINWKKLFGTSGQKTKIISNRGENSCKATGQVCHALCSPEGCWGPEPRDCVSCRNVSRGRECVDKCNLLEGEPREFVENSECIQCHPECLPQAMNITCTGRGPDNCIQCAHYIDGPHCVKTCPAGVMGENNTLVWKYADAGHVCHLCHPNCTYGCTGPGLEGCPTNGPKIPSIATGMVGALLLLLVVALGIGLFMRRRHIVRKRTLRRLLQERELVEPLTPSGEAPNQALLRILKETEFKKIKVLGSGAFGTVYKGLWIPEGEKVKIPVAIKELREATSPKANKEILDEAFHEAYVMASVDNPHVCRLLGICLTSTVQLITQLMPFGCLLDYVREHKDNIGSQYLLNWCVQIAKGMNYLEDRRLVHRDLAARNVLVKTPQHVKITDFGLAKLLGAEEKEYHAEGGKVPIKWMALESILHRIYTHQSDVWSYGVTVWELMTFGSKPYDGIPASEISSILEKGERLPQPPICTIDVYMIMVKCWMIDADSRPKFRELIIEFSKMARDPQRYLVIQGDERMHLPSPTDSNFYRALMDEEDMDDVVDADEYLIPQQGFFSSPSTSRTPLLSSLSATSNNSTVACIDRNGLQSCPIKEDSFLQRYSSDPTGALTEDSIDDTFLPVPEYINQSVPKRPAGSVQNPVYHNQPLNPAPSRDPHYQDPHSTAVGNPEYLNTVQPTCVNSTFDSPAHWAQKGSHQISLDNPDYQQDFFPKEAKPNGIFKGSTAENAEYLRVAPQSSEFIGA

| IC50 [1] | IC50 [2] | IC50 [3] | IC50 [4] | Structure (SMILES) |
| --- | --- | --- | --- | --- |
| 3 nM | < 1 nM | 60 nM | – | CCc1cccc(Nc2nc(Cl)ncc2Cl)c1NS(C)(=O)=O [US20240343694, Example 50] |
| 3 nM | 1 nM | 52 nM | – | CC(=O)N(C)c1c([N+](=O)[O-])ccc(C)c1C [US20240343694, Example 84] |
| < 1 nM | < 1 nM | 6 nM | – | COC(=O)c1cnc(Cl)nc1Nc1cccc2c1N(S(C)(=O)=O)CC2 [US20240343694, Example 68] |
| < 1 nM | < 1 nM | 1 nM | – | C=CC(=O)Nc1cc(N)c(OC)cc1OCCN1CCOCC1 [US20240343694, Example 80] |
| < 1 nM | < 1 nM | 4 nM | – | CCc1cccc(Nc2nc(Cl)ncc2Cl)c1NS(=O)(=O)CC [US20240343694, Example 52] |
| < 1 nM | < 1 nM | 7 nM | – | C=CC(=O)Nc1cc(Nc2ncc(Cl)c(Nc3ccccc3NS(C)(=O)=O)n2)c(OC)cc1N(C)CCN(C(=O)OCc1ccccc1)C(C)C [US20240343694, Example 33] |
| 3 nM | < 1 nM | 27 nM | – | C=CC(=O)Nc1cc(Nc2ncc(Cl)c(Nc3ccccc3NS(C)(=O)=O)n2)c(OC)cc1N(C)CCN(C)C(=O)OCc1ccccc1 [US20240343694, Example 35] |
| < 1 nM | < 1 nM | 3 nM | – | O=S1(=O)CCCCN1c1ccccc1Nc1nc(Cl)ncc1Cl [US20240343694, Example 78] |
| 1 nM | < 1 nM | 20 nM | – | C=CC(=O)Nc1cc(N)c(OC)cc1N(C)CCN(C)C(=O)OCc1ccccc1 [US20240343694, Example 34] |
| < 1 nM | < 1 nM | 3 nM | – | CN(c1c(Nc2nc(Cl)ncc2Cl)ccc2nccnc12)S(C)(=O)=O [US20240343694, Example 75] |
| < 1 nM | < 1 nM | 10 nM | – | Cc1ccc(Nc2nc(Cl)ncc2Cl)c(NS(C)(=O)=O)c1C [US20240343694, Example 54] |
| 20 nM | 2 nM | 157 nM | – | CC(=O)N(C)c1c(Nc2nc(Cl)ncc2Cl)ccc(C)c1C [US20240343694, Example 86] |
| 19 nM | 3 nM | 374 nM | – | CC(=O)Nc1c([N+](=O)[O-])ccc(C)c1C [US20240343694, Example 83] |
| < 1 nM | < 1 nM | 6 nM | – | CC(C)N(c1ccccc1Nc1nc(Cl)ncc1Cl)S(C)(=O)=O [US20240343694, Example 42] |
| < 1 nM | – | 6 nM | < 1 nM | CC(C)OC(=O)c1cnc(Cl)nc1Nc1cccc2c1N(S(C)(=O)=O)CC2 [US20240343694, Example 69] |
| 1 nM | < 1 nM | 8 nM | – | C=CC(=O)Nc1cc(N)c(OC)cc1N(C)CCN(C(=O)OCc1ccccc1)C(C)C [US20240343694, Example 32] |
| 7 nM | 3 nM | 20 nM | – | Cc1cccc(Nc2nc(Cl)ncc2Cl)c1N(C)S(C)(=O)=O [US20240343694, Example 48] |

Continued, compound first:

| Structure (SMILES) | IC50 [1] | IC50 [2] | IC50 [3] | IC50 [4] |
| --- | --- | --- | --- | --- |
| C=CC(=O)Nc1cc(N)c(OC)cc1N1CCC(N2CCN(C)CC2)CC1 [US20240343694, Example 60] | < 1 nM | < 1 nM | 10 nM | – |
| CS(=O)(=O)Nc1c(Nc2nc(Cl)ncc2Cl)ccc2nccnc12 [US20240343694, Example 76] | < 1 nM | < 1 nM | 1 nM | – |
| CS(=O)(=O)n1ccc2cccc(Nc3nc(Cl)ncc3Cl)c21 [US20240343694, Example 74] | < 1 nM | < 1 nM | < 1 nM | – |
| C=C(F)C(=O)Nc1cc(N)c(OC)cc1N(C)CCN(C)C [US20240343694, Example 64] | < 1 nM | < 1 nM | 3 nM | – |
| Cc1cccc(Nc2nc(Cl)ncc2Cl)c1NS(C)(=O)=O [US20240343694, Example 46] | < 1 nM | < 1 nM | 2 nM | – |
| C=CC(=O)Nc1cc(Nc2ncc(Cl)c(Nc3cccc4c3N(S(C)(=O)=O)CC4)n2)c(OC)cc1N(C)CCN(C)C(=O)OC(C)(C)C [US20240343694, Example 67] | < 1 nM | < 1 nM | 81 nM | – |
| Cc1ccc(Nc2nc(Cl)ncc2Cl)c(N(C)S(C)(=O)=O)c1 [US20240343694, Example 55] | < 1 nM | < 1 nM | < 1 nM | – |
| CN(c1c(Cl)cccc1Nc1nc(Cl)ncc1Cl)S(C)(=O)=O [US20240343694, Example 45] | < 1 nM | < 1 nM | 8 nM | – |
| CN(c1ccccc1Nc1nc(Cl)ncc1Cl)S(C)(=O)=O [US20240343694, Example 39] | < 1 nM | < 1 nM | 8 nM | – |
| C=CC(=O)Nc1cc(N)c(OC)cc1N(C)CCN1CCC1 [US20240343694, Example 82] | < 1 nM | < 1 nM | 2 nM | – |
| Cc1ccc(S(=O)(=O)Nc2ccccc2Nc2nc(Cl)ncc2F)cc1 [US20240343694, Example 23] | 3 nM | < 1 nM | 30 nM | – |
| CS(=O)(=O)N1CCc2cccc(Nc3nc(Cl)ncc3C(F)(F)F)c21 [US20240343694, Example 73] | < 1 nM | < 1 nM | 5 nM | – |
| CC(=O)N(C)c1c(N)ccc(C)c1C [US20240343694, Example 85] | 43 nM | 18 nM | 871 nM | – |
| CCS(=O)(=O)N(C)c1ccccc1Nc1nc(Cl)ncc1Cl [US20240343694, Example 40] | 1 nM | < 1 nM | 4 nM | – |
| C=CC(=O)Nc1cc(Nc2ncc(Cl)c(Nc3cccc4c3N(S(C)(=O)=O)CCC4)n2)c(OC)cc1N(C)CCN(C)C(=O)OC(C)(C)C [US20240343694, Example 58] | 10 nM | < 1 nM | 90 nM | – |
| C=CC(=O)Nc1cc(N)c(OC)cc1N(C)CCN1CCCC1 [US20240343694, Example 29] | < 1 nM | < 1 nM | 5 nM | – |
| COc1cc(N2CCN(C)CC2)c(N)cc1Nc1ncc(Cl)c(Nc2ccccc2NS(C)(=O)=O)n1 [US20240343694, Example 37] | 2 nM | < 1 nM | 26 nM | – |
| CC(C)c1cccc(Nc2nc(Cl)ncc2Cl)c1N(C)S(C)(=O)=O [US20240343694, Example 47] | < 1 nM | < 1 nM | 6 nM | – |
| CCS(=O)(=O)N1CCc2cccc(Nc3nc(Cl)ncc3Cl)c21 [US20240343694, Example 66] | < 1 nM | < 1 nM | 5 nM | – |
| COc1cc(N(C)CCN(C)C)c(N)cc1Nc1ncc(Cl)c(Nc2ccccc2NS(C)(=O)=O)n1 [US20240343694, Example 38] | 2 nM | < 1 nM | 14 nM | – |
| CCN(c1ccccc1Nc1nc(Cl)ncc1Cl)S(C)(=O)=O [US20240343694, Example 41] | 1 nM | < 1 nM | 9 nM | – |
| C=CC(=O)Nc1cc(N)c(OC)cc1N(C)CCN1CCCCC1 [US20240343694, Example 31] | < 1 nM | < 1 nM | 0.3 nM | – |
| CC(=O)Nc1c(Nc2nc(Cl)ncc2Cl)ccc(C)c1C [US20240343694, Example 87] | 24 nM | 4 nM | 107 nM | – |
| COc1cc(N2CCOCC2)c(N)cc1Nc1ncc(Cl)c(Nc2ccccc2NS(C)(=O)=O)n1 [US20240343694, Example 36] | 1 nM | < 1 nM | 10 nM | – |
| CS(=O)(=O)N1CCc2cccc(Nc3nc(Cl)ncc3C#N)c21 [US20240343694, Example 70] | 4 nM | < 1 nM | 33 nM | – |
